{"source": "patent US11459570B2", "about": "“Transgenic mouse expressing amyloid precursor protein that has olfactory neuron degeneration” (The General Hospital Corporation, priority 2014, dated 2022)", "key": {"cortical neurons": {"tested_on": "cortical neurons", "conditions": "rats; cited from earlier work"}, "MDA5 and PKR": {"tested_on": "MDA5 and PKR", "assay": "Western blots of type I interferon-stimulated genes in differentiated ReNVM cells after PolyIC transfection", "type": "cell-based, human", "conditions": "western blot, 24 hour post transfection with PolyIC", "description": "(§1) FIGS. 12A-G. dsRNA induces a Type I interferon response and is sufficient to induced neurodegeneration in human neurons. A-E) Representative transmitted light images of differentiated ReNVM neurons transfected with increasing doses of PolyIC, a dsRNA mimetic, showing a dose-dependent loss of neurons after 48 hours.\n(§2) Cytoplasmic dsRNA is sensed by three different proteins, PKR, MDA5, and RIG-I, that are components of the innate immune system. Engagement of each protein by dsRNA induces interferon signaling and neurodegeneration. […] To determine if cytoplasmic dsRNA was sufficient to mediate neurodegeneration in a human neurons, we transfected neuronal differentiated ReNcell VM cells, a human neural cell line derived from ventral mesencephalon, with escalating doses of poly IC (which mimics a GC dinucleotide repeat)."}, "OSNs": {"tested_on": "OSNs", "conditions": "mice, intranasal instillation; cited from earlier work"}, "[1]": {"tested_on": "neuronal differentiated ReNcell VM cells", "assay": "Viability of differentiated ReNcell VM neurons transfected with poly IC (Celltiter-Glo)", "type": "cell-based, human", "conditions": "escalating doses of poly IC, after 2 days (48 hours) in culture", "description": "as §1, §2"}}}
{"substance": "polyinosinic-polycytidylic acid [poly IC]", "values": [{"measurement": "degeneration of cortical neurons", "setting": "cortical neurons", "value": "causes degeneration"}, {"measurement": "protein expression of type I interferon-stimulated genes (MDA5, PKR)", "setting": "MDA5 and PKR", "value": "massive induction of MDA5 and PKR"}, {"measurement": "protein expression of type I interferon-stimulated genes (MDA5, PKR)", "setting": "MDA5 and PKR; listed as PolyIC", "value": "elevated protein expression of type I interferon-stimulated genes"}, {"measurement": "degeneration of OSNs", "setting": "OSNs", "value": "causes degeneration"}, {"measurement": "viability of ReNVM neurons relative to mock-transfected neurons", "setting": "[1]", "value": "dose-dependent reduction in their viability"}, {"measurement": "viability of ReNVM neurons relative to mock-transfected neurons", "setting": "[1]; listed as PolyIC", "value": "dose-dependent loss in cell viability"}]}
